The source of these data is paper PMC6658735 (Biomaterials, 2019).

For series [1], the system named is AM microtissues.
The subject of series [2] is AM microtissues. Description: Effect of ROCK inhibitor on AM cyst formation. In kind it is cell-based, human. Conditions: 10 μM.
Setting [3] is: day 0 to day 3, control: Y27632 removed at day 1.

As for `COc1cccc2c1C(=O)c1c(O)c3c(c(O)c1C2=O)C[C@@](O)(C(=O)CO)C[C@@H]3O[C@H]1C[C@H](N)[C@H](O)[C@H](C)O1` [Doxorubicin], the “toxicity on the AM development (dose-response, in words)” value in the series on AM microtissues [1] was “induces massive cell death shortly after treatment”.

In the case of `C[C@@H](N)[C@H]1CC[C@H](C(=O)Nc2ccncc2)CC1` [Y27632], the cyst morphology entry in the series on AM microtissues [2] (day 0 to day 3) was “flattened and collapsed morphology without a visible single, central lumen”. For the same molecule, in the series with AM microtissues [2] (day 0 to day 3, control has a single central lumen), the “lumens per cyst (EZRIN immunostaining)” value is “multiple EZRIN+ lumens”. Further, in the series with AM microtissues [2] (setting [3]), the “average normalized nuclear intensity of GATA3 vs untreated control” value is reported as “no significant differences”, the “average normalized nuclear intensity of TFAP2A vs untreated control” value is given as “no significant differences” and the “average normalized nuclear intensity of TFAP2B vs untreated control” value was “no significant differences”.
